# Test results reported in patent US9382215B2, “Therapeutic methods and agents for treating myotonic dystrophy” (The Board of Trustees of the University of Illinois, priority 2012, dated 2016).
# pIC50, pKi: −log10 of the molar value.
# Legend:
# [1] = Water solubility; format: physicochemical
# [2] = biological target: T1, MBNL1N-(CUG)4 RNA (Homo sapiens, UniProt Q9NR56); assay: Inhibition of MBNL1N binding to (CUG)4 RNA in the presence of competitor tRNA; format: biochemical
# T1 construct: An expression vector for MBNL1N (1-272 aminoacids) was obtained from Maurice S. Swanson; hexahis; made in house
# T1 sequence (Q9NR56 1-272): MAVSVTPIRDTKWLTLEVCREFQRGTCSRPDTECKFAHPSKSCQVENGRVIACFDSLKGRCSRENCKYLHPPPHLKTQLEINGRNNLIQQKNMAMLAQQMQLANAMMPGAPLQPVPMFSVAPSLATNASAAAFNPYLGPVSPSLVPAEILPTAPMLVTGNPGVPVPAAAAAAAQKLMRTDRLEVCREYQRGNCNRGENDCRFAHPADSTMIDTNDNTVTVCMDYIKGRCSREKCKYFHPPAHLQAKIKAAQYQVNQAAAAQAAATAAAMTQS
# Procedure: (§1) RNA was labeled with [γ-^32P]ATP using T4 polynucleotide kinase (New England Biolabs). Labeled RNA (5 μL, 0.5 nM) was heated at 95° C. for 2 min and then placed on ice for 10 min and diluted to 125 μL in RNA storage buffer (66 mM NaCl, 6.7 mM MgCl2, and 27 mM Tris.HCl (pH 7.5). If required for the experiment, tRNA was added to the RNA solution to give a final concentration of approximately 8 μM. The protein (MBNL1N) was serially diluted in binding buffer (175 mM NaCl, 5 mM MgCl2, 20 mM Tris.HCl (pH 7.5), 1.25 mM BME, 12.5% glycerol, 2 mg/mL BSA, and 0.1 mg/mL heparin), and 5 μL of protein solution was added to 5 μL of RNA solution (Warf and Berglund, RNA, 2007, 13, 2238-2251). The reaction mixture was incubated at room temperature for 25 min and loaded onto a 6% polyacrylamide gel (80:1) at 4° C. The gels were run for 1 hour at 360V in 22.5 mM Tris-borate buffer (pH 8). Gels were visualized on a Molecular Dynamics Storm phosphorimager. The apparent Kd values were obtained by fitting fraction RNA bound versus protein concentration using the following equation: fraction bound=1/(1+(Kd/[P]T)). All binding measurements were performed with a greater than 10-fold excess of protein over RNA in each binding reaction used to determine the Kd so that [P] would be approximately equal to [P]total. […]
# [3] = biological target: CUG repeats; assay: Binding to CUG repeats
# Procedure: (§2) Isothermal titration calorimetry measurements were performed at 25° C. on a MicroCal VP-ITC (MicroCal, Inc., Northampton, Mass.). A standard experiment consisted of titrating 10 μL of a 500 μM ligand from a 250 μL syringe (rotating at 300 rpm) into a sample cell containing 1.42 mL of a 20 μM DNA/RNA solution. The duration of the injection was set to 24 s, and the delay between injections was 300 s. The initial delay prior to the first injection was 60 s. To derive the heat associated with each injection, the area under each isotherm (microcalories per second versus seconds) was determined by integration by the graphing program Origin 5.0 (MicroCal, Inc. Northampton, Mass.). […] In many cases, additional sites are not detected by Job plot analysis and likely represent low-affinity sites. […]
# (§3) A cell sample (250 μL) of 0.2 μM a compound of interest (in 20 mM MOPS pH 7.0, 300 mM NaCl) was excited at 310 nm (excitation slit of 4 nm) and emission recorded between 470-530 nm (emission slit of 8 nm) monitoring the maximum at 495 nm. […] The sample was then allowed to equilibrate for 15 min and the fluorescence emission recorded. The decrease in fluorescence with increased DNA/RNA was monitored until the binding sites became saturated and the fluorescence change was no longer evident. […]
# [4] = Tolerability in mice, intraperitoneal injection; format: in vivo; conditions: mouse, in vivo, ip, mice, 5-100 mg/kg tested, read-out: maximum tolerated dose
# Procedure: (§4) The compounds are found to be non-toxic among different cell types tested, including DM1 patient cells and 3T3 mouse fibroblasts. In one experiment, three mice each were evaluated at 5, 10, 20 50, and 100 mg/kg of compound 1, given by intraperitoneal injection.
# [5] = tested on: mice; assay: Tolerability in mice, intraperitoneal injection; format: in vivo; conditions: 100 mg/kg
# Procedure: as §4
# [6] = biological target: T2, MBNL1N-(CUG)12 RNA (Homo sapiens, UniProt Q9NR56); assay: Inhibition of MBNL1N binding to (CUG)12 RNA in the presence of competitor tRNA; format: biochemical
# T2 construct: An expression vector for MBNL1N (1-272 aminoacids) was obtained from Maurice S. Swanson; hexahis; made in house
# T2 sequence (Q9NR56 1-272): T1 sequence (Q9NR56 1-272)
# Procedure: as §1
# [7] = biological target: T3, MBNL1-CUG interaction (Homo sapiens, UniProt Q9NR56); assay: Electrophoretic mobility shift assay (EMSA) of inhibition of MBNL1-CUG interaction; format: biochemical
# T3 construct: An expression vector for MBNL1N (1-272 aminoacids) was obtained from Maurice S. Swanson; hexahis; made in house
# T3 sequence (Q9NR56 1-272): T1 sequence (Q9NR56 1-272)
# Procedure: RNA was labeled with [γ-^32P]ATP using T4 polynucleotide kinase (New England Biolabs). Labeled RNA (5 μL, 0.5 nM) was heated at 95° C. for 2 min and then placed on ice for 10 min and diluted to 125 μL in RNA storage buffer (66 mM NaCl, 6.7 mM MgCl2, and 27 mM Tris.HCl (pH 7.5). If required for the experiment, tRNA was added to the RNA solution to give a final concentration of approximately 8 μM. The protein (MBNL1N) was serially diluted in binding buffer (175 mM NaCl, 5 mM MgCl2, 20 mM Tris.HCl (pH 7.5), 1.25 mM BME, 12.5% glycerol, 2 mg/mL BSA, and 0.1 mg/mL heparin), and 5 μL of protein solution was added to 5 μL of RNA solution (Warf and Berglund, RNA, 2007, 13, 2238-2251). The reaction mixture was incubated at room temperature for 25 min and loaded onto a 6% polyacrylamide gel (80:1) at 4° C. The gels were run for 1 hour at 360V in 22.5 mM Tris-borate buffer (pH 8). Gels were visualized on a Molecular Dynamics Storm phosphorimager. The apparent Kd values were obtained by fitting fraction RNA bound versus protein concentration using the following equation: fraction bound=1/(1+(Kd/[P]T)). All binding measurements were performed with a greater than 10-fold excess of protein over RNA in each binding reaction used to determine the Kd so that [P] would be approximately equal to [P]total.
# The inhibition of the MBNL1N-RNA complex was investigated using the above procedure except that the small molecule was added to the RNA-protein complex after 25 min of incubation. The reaction mixture was incubated for an additional 10-15 minutes at room temperature (˜23° C.). The inhibition assays were performed in the presence of 10% DMSO. To determine IC50 values, the free RNA versus small molecule concentration was fit to the equation: B=ΔB exp((−0.69/IC50)C)+Bf. B is the volume of the free RNA band in the gel, ΔB is the difference between the volumes of the free RNA bands at the lowest and highest concentrations of small molecule (Bi−Bf), C is the concentration of the small molecule, and IC50 is the concentration of small molecule at which B=(½ΔB)+Bf. […]
# [8] = tested on: 3T3 mouse fibroblast; assay: Toxicity / cell viability in 3T3 mouse fibroblasts; format: cell-based
# [9] = tested on: MBNL1-CUG foci; assay: Confocal microscopy of MBNL1-CUG foci in HeLa cells transfected with GFP-MBNL1 and DMPK (CUG)960; format: cell-based; conditions: HeLa cells containing (CUG)960, confocal microscopy, preliminary results
# Text: In various embodiments, the compounds described herein can form MBNL1-CUG foci inside the nucleus for cells containing expanded CUG repeats.
# [10] = biological target: CTG repeats; assay: Binding to CTG repeats
# Procedure: as §2, §3
smiles,measurement,setting,value
"N=C(NCCCCNc1nc(N)nc(N)n1)c1ccc(C(=N)NCCCCNc2nc(N)nc(N)n2)cc1 [Compound 1, N^1,N^4-bis(4-((4,6-diamino-1,3,5-triazin-2-yl)amino)butyl)terephthalimidamide]",water solubility,[1],improved water solubility
same,Ki for inhibition of MBNL1N binding to (CUG)4 RNA,[2],low micromolar
same,affinity for CUG repeats,[3],high nanomolar affinity
same,MTD,[4],50 mg/kg
same,mice exhibiting neurotoxicity,[5],two of three
same,Ki for inhibition of MBNL1N binding to (CUG)12 RNA,[6],low micromolar
same,pIC50,[7]; EMSA,4.96
same,pKi,"[7]; EMSA, read-out: inhibition constant (Ki) for MBNL1-CUG interaction",6.75
same,inhibitory ability in EMSA screen compared to other inhibitor compounds (such as compound 5),[7]; same concentration (100 μM),significantly improved inhibitory ability
same,toxicity towards mouse fibroblasts,[8],non-toxic
same,cell viability,"[8]; 100 μM, 3-day incubation",100%
same,disruption of MBNL1-CUG foci in the nucleus,[9],significant disruption of foci
same,affinity for CTG repeats,[10],high nanomolar affinity
